The NIST ThermoML archive (doi:10.1016/j.tca.2012.02.002)
Values joined by “and” are separate entries in the source; they are usually repeats but may differ in a detail not shown here. Identical values can stand only once.

Experiment: molar heat capacity at constant pressure
Details: 101.33 kPa, Crystal

O=P([O-])([O-])[O-].[Er+3] [erbium phosphate]
Details	molar heat capacity at constant pressure
2 K, Drop calorimetry	0.189 J/K/mol
2.05 K, Relaxation Calorimetry	0.1821 J/K/mol
2.06 K, Relaxation Calorimetry	0.1815 J/K/mol
2.15 K, Relaxation Calorimetry	0.169 J/K/mol and 0.1693 J/K/mol
2.23 K, Relaxation Calorimetry	0.1585 J/K/mol
2.24 K, Relaxation Calorimetry	0.1587 J/K/mol
2.33 K, Relaxation Calorimetry	0.1486 J/K/mol and 0.1492 J/K/mol
2.42 K, Relaxation Calorimetry	0.1398 J/K/mol
2.52 K, Relaxation Calorimetry	0.1308 J/K/mol and 0.1303 J/K/mol
2.62 K, Relaxation Calorimetry	0.1226 J/K/mol
2.63 K, Relaxation Calorimetry	0.1216 J/K/mol
2.73 K, Relaxation Calorimetry	0.1149 J/K/mol
2.74 K, Relaxation Calorimetry	0.1147 J/K/mol
2.84 K, Relaxation Calorimetry	0.1079 J/K/mol
2.85 K, Relaxation Calorimetry	0.1075 J/K/mol
2.96 K, Relaxation Calorimetry	0.1012 J/K/mol
2.97 K, Relaxation Calorimetry	0.101 J/K/mol
3 K, Drop calorimetry	0.0991 J/K/mol
3.08 K, Relaxation Calorimetry	0.09512 J/K/mol
3.09 K, Relaxation Calorimetry	0.095 J/K/mol
3.21 K, Relaxation Calorimetry	0.08975 J/K/mol
3.22 K, Relaxation Calorimetry	0.0889 J/K/mol
3.34 K, Relaxation Calorimetry	0.08523 J/K/mol
3.35 K, Relaxation Calorimetry	0.0846 J/K/mol
3.48 K, Relaxation Calorimetry	0.08127 J/K/mol and 0.0813 J/K/mol
3.62 K, Relaxation Calorimetry	0.07825 J/K/mol
3.64 K, Relaxation Calorimetry	0.0777 J/K/mol
3.77 K, Relaxation Calorimetry	0.07611 J/K/mol and 0.0763 J/K/mol
3.93 K, Relaxation Calorimetry	0.0754 J/K/mol
4 K, Drop calorimetry	0.0755 J/K/mol
4.1 K, Relaxation Calorimetry	0.07633 J/K/mol and 0.0764 J/K/mol
4.27 K, Relaxation Calorimetry	0.07937 J/K/mol and 0.079 J/K/mol
4.44 K, Relaxation Calorimetry	0.08477 J/K/mol
4.45 K, Relaxation Calorimetry	0.0843 J/K/mol
4.62 K, Relaxation Calorimetry	0.09293 J/K/mol
4.63 K, Relaxation Calorimetry	0.0925 J/K/mol
4.82 K, Relaxation Calorimetry	0.1048 J/K/mol and 0.1045 J/K/mol
5.02 K, Relaxation Calorimetry	0.1211 J/K/mol and 0.1208 J/K/mol
5.22 K, Relaxation Calorimetry	0.1421 J/K/mol and 0.142 J/K/mol
5.44 K, Relaxation Calorimetry	0.1701 J/K/mol and 0.1698 J/K/mol
5.67 K, Relaxation Calorimetry	0.2055 J/K/mol and 0.2049 J/K/mol
5.91 K, Relaxation Calorimetry	0.2491 J/K/mol and 0.2489 J/K/mol
6 K, Drop calorimetry	0.268 J/K/mol
6.15 K, Relaxation Calorimetry	0.3031 J/K/mol and 0.3029 J/K/mol
6.41 K, Relaxation Calorimetry	0.3662 J/K/mol and 0.3497 J/K/mol
6.67 K, Relaxation Calorimetry	0.4408 J/K/mol
6.68 K, Relaxation Calorimetry	0.4451 J/K/mol
6.96 K, Relaxation Calorimetry	0.5353 J/K/mol and 0.5363 J/K/mol
7.24 K, Relaxation Calorimetry	0.6377 J/K/mol
7.25 K, Relaxation Calorimetry	0.6369 J/K/mol
7.55 K, Relaxation Calorimetry	0.7594 J/K/mol and 0.7584 J/K/mol
7.87 K, Relaxation Calorimetry	0.893 J/K/mol and 0.8931 J/K/mol
8 K, Drop calorimetry	0.956 J/K/mol
8.2 K, Relaxation Calorimetry	1.047 J/K/mol and 1.049 J/K/mol
8.54 K, Relaxation Calorimetry	1.218 J/K/mol
8.56 K, Vacuum adiabatic calorimetry	1.262 J/K/mol
8.9 K, Relaxation Calorimetry	1.407 J/K/mol and 1.404 J/K/mol
9.19 K, Vacuum adiabatic calorimetry	1.587 J/K/mol
9.27 K, Relaxation Calorimetry	1.607 J/K/mol and 1.604 J/K/mol
9.65 K, Relaxation Calorimetry	1.831 J/K/mol
9.84 K, Vacuum adiabatic calorimetry	1.971 J/K/mol
10 K, Drop calorimetry	2.222 J/K/mol
10.05 K, Relaxation Calorimetry	2.057 J/K/mol and 2.046 J/K/mol
10.26 K, Relaxation Calorimetry	2.218 J/K/mol
10.52 K, Vacuum adiabatic calorimetry	2.384 J/K/mol
10.53 K, Relaxation Calorimetry	2.408 J/K/mol
10.66 K, Relaxation Calorimetry	2.462 J/K/mol
10.91 K, Relaxation Calorimetry	2.636 J/K/mol
11.1 K, Relaxation Calorimetry	2.733 J/K/mol
11.21 K, Vacuum adiabatic calorimetry	2.814 J/K/mol
11.35 K, Relaxation Calorimetry	2.908 J/K/mol
11.56 K, Relaxation Calorimetry	3.016 J/K/mol
11.81 K, Relaxation Calorimetry	3.191 J/K/mol
11.92 K, Vacuum adiabatic calorimetry	3.253 J/K/mol
12.04 K, Relaxation Calorimetry	3.31 J/K/mol
12.29 K, Relaxation Calorimetry	3.486 J/K/mol
12.53 K, Relaxation Calorimetry	3.616 J/K/mol
12.64 K, Vacuum adiabatic calorimetry	3.701 J/K/mol
12.78 K, Relaxation Calorimetry	3.791 J/K/mol
13.05 K, Relaxation Calorimetry	3.929 J/K/mol
13.3 K, Relaxation Calorimetry	4.098 J/K/mol
13.37 K, Vacuum adiabatic calorimetry	4.111 J/K/mol
13.59 K, Relaxation Calorimetry	4.242 J/K/mol
13.84 K, Relaxation Calorimetry	4.403 J/K/mol
14.12 K, Vacuum adiabatic calorimetry	4.51 J/K/mol
14.15 K, Relaxation Calorimetry	4.549 J/K/mol
14.41 K, Relaxation Calorimetry	4.708 J/K/mol
14.74 K, Relaxation Calorimetry	4.863 J/K/mol
14.88 K, Vacuum adiabatic calorimetry	4.899 J/K/mol
14.99 K, Relaxation Calorimetry	5.019 J/K/mol
15 K, Drop calorimetry	4.903 J/K/mol
15.35 K, Relaxation Calorimetry	5.181 J/K/mol
15.6 K, Relaxation Calorimetry	5.328 J/K/mol
15.65 K, Vacuum adiabatic calorimetry	5.247 J/K/mol
15.99 K, Relaxation Calorimetry	5.488 J/K/mol
16.24 K, Relaxation Calorimetry	5.627 J/K/mol
16.43 K, Vacuum adiabatic calorimetry	5.599 J/K/mol
16.65 K, Relaxation Calorimetry	5.792 J/K/mol
16.91 K, Relaxation Calorimetry	5.923 J/K/mol
17.21 K, Vacuum adiabatic calorimetry	5.933 J/K/mol
17.34 K, Relaxation Calorimetry	6.085 J/K/mol
17.6 K, Relaxation Calorimetry	6.206 J/K/mol
18 K, Vacuum adiabatic calorimetry	6.247 J/K/mol
18.06 K, Relaxation Calorimetry	6.369 J/K/mol
18.32 K, Relaxation Calorimetry	6.493 J/K/mol
18.8 K, Vacuum adiabatic calorimetry	6.533 J/K/mol
18.81 K, Relaxation Calorimetry	6.67 J/K/mol
19.07 K, Relaxation Calorimetry	6.774 J/K/mol
19.59 K, Vacuum adiabatic calorimetry	6.837 J/K/mol
19.6 K, Relaxation Calorimetry	6.935 J/K/mol
19.85 K, Relaxation Calorimetry	7.052 J/K/mol
20 K, Drop calorimetry	6.881 J/K/mol
20.41 K, Relaxation Calorimetry	7.222 J/K/mol
20.67 K, Relaxation Calorimetry	7.329 J/K/mol
20.84 K, Vacuum adiabatic calorimetry	7.265 J/K/mol
21.26 K, Relaxation Calorimetry	7.493 J/K/mol
21.52 K, Relaxation Calorimetry	7.59 J/K/mol
22.14 K, Relaxation Calorimetry	7.771 J/K/mol
22.39 K, Vacuum adiabatic calorimetry	7.793 J/K/mol
22.4 K, Relaxation Calorimetry	7.869 J/K/mol
23.06 K, Relaxation Calorimetry	8.068 J/K/mol
23.32 K, Relaxation Calorimetry	8.163 J/K/mol
23.97 K, Vacuum adiabatic calorimetry	8.29 J/K/mol
24.02 K, Relaxation Calorimetry	8.364 J/K/mol
24.29 K, Relaxation Calorimetry	8.456 J/K/mol
25 K, Drop calorimetry	8.631 J/K/mol
25.02 K, Relaxation Calorimetry	8.665 J/K/mol
25.28 K, Relaxation Calorimetry	8.765 J/K/mol
25.55 K, Vacuum adiabatic calorimetry	8.799 J/K/mol
26.06 K, Relaxation Calorimetry	9.002 J/K/mol
26.32 K, Relaxation Calorimetry	9.091 J/K/mol
27.13 K, Vacuum adiabatic calorimetry	9.314 J/K/mol
27.41 K, Relaxation Calorimetry	9.432 J/K/mol
28.27 K, Relaxation Calorimetry	9.673 J/K/mol
28.53 K, Relaxation Calorimetry	9.786 J/K/mol
28.72 K, Vacuum adiabatic calorimetry	9.871 J/K/mol
29.45 K, Relaxation Calorimetry	10.07 J/K/mol
29.72 K, Relaxation Calorimetry	10.17 J/K/mol
30 K, Drop calorimetry	10.43 J/K/mol
30.31 K, Vacuum adiabatic calorimetry	10.46 J/K/mol
30.68 K, Relaxation Calorimetry	10.5 J/K/mol
30.95 K, Relaxation Calorimetry	10.6 J/K/mol
31.9 K, Vacuum adiabatic calorimetry	11.11 J/K/mol
31.97 K, Relaxation Calorimetry	10.96 J/K/mol
32.22 K, Relaxation Calorimetry	11.08 J/K/mol
33.31 K, Relaxation Calorimetry	11.44 J/K/mol
33.49 K, Vacuum adiabatic calorimetry	11.75 J/K/mol
33.56 K, Relaxation Calorimetry	11.58 J/K/mol
34.69 K, Relaxation Calorimetry	11.99 J/K/mol
34.95 K, Relaxation Calorimetry	12.12 J/K/mol
35 K, Drop calorimetry	12.41 J/K/mol
35.09 K, Vacuum adiabatic calorimetry	12.32 J/K/mol
36.69 K, Vacuum adiabatic calorimetry	13.09 J/K/mol
38.29 K, Vacuum adiabatic calorimetry	13.85 J/K/mol
39.9 K, Vacuum adiabatic calorimetry	14.59 J/K/mol
40 K, Drop calorimetry	14.63 J/K/mol
41.51 K, Vacuum adiabatic calorimetry	15.35 J/K/mol
43.13 K, Vacuum adiabatic calorimetry	16.12 J/K/mol
44.75 K, Vacuum adiabatic calorimetry	16.95 J/K/mol
45 K, Drop calorimetry	17.07 J/K/mol
46.39 K, Vacuum adiabatic calorimetry	17.8 J/K/mol
